Entries after “also recorded” stand apart in the source; their conditions may differ. Where two headings read alike, the source gives them in different places.
How the values were obtained:
[1] = biological target: T1, ternary complex consisting of GFP-ABD-L253P, Lifeact-mCherry, and actin (Homo sapiens, UniProt O15020, L253P); experiment: Primary live-cell time-resolved FRET assay (GFP-ABD-L253P plus Lifeact-mCherry); assay type: cell-based; settings: LOPAC compounds 10 μM, 120 min
T1 construct: L252P β-III-spectrin (human) ABD residues 1-284; expressed in transfected cells; host or cells: HEK293-6E, pTT5 vector, transient

[2] = biological target: T2, Lifeact-mCherry binding to F-actin (Oryctolagus cuniculus, UniProt P68135); experiment: F-actin and Lifeact-mCherry co-sedimentation assay; set-up: species or system New Zealand white rabbit (Oryctolagus cuniculus); settings: 10 μM
T2 construct: Actin was purified from acetone powder derived from the psoas muscle; made in house; host or cells: actin from rabbit psoas muscle; Lifeact-mCherry from E. coli, pE-SUMOpro
Protocol: Actin was purified from acetone powder derived from the psoas muscle of New Zealand white rabbit (Oryctolagus cuniculus). Filamentous (F)-actin was stored for up to 3 days on ice before use in binding assays. Within an hour of the binding assay, the F-actin was clarified at 100,000×g at 4° C. for 10 min prior to setting up binding assays. The L253P β-III-spectrin ABD was expressed in E. coli BL21(DE3) (Novagen). The ABD was purified and the His-SUMO tag proteolytically removed, as previously described, except size-exclusion chromatography was not performed due to the high purity of the ABD protein. Lifeact-mCherry protein was similarly prepared. A Bradford assay was performed to determine clarified F-actin and ABD protein concentrations.
F-actin and ABD binding assays were performed as previously described. In brief, binding assays used 1 μM ABD protein, 1 μM F-actin and 1-50 μM compound (as indicated) or DMSO control for a total reaction volume of 60 μL in F-buffer containing 10 mM Tris, pH 7.5, 150 mM NaCl, 0.5 mM ATP, 2 mM MgCl2, and 1 mM DTT. Following 30 min incubation at room temperature (21° C.). F-actin was pelleted using centrifugation at 100,000×g at 25° C. for 30 min. Unbound ABD in the supernatant was measured following SDS-PAGE and Coomassie blue staining in accord. In addition, control co-sedimentations assays that lacked actin were performed to test if compounds cause ABD aggregation. F-actin and Lifeact-mCherry binding assays were undertaken with 2 μM Lifeact-mCherry, 30 μM F-actin and 1-50 μM compound (as indicated) or DMSO control for a total reaction volume of 80 μL in F-buffer. For a no-actin binding control, an assay sample with no F-actin was also set up. Binding reactions were allowed to reach equilibrium at room temperature (21° C.) for 30 min and then F-actin was pelleted by centrifugation at 100,000×g at 25° C. for 30 min. The amount of unbound Lifeact-mCherry was sampled by loading 7 μL of spin supernatant on a low volume black bottom 384-well plate (Greiner). Amount of mCherry was determined by acquiring fluorescence spectrum peak intensity at ˜600 nm using a spectral unmixing plate reader (Fluorescence Innovations, Inc) equipped with a 532 nm laser (Laserglow Technologies, Ontario, Canada) for excitation, 532 nm longpass filter for emission, and PMT for emission detection. The fraction of Lifeact-mCherry bound to F-actin was determined by subtracting from one the fraction of supernatant fluorescence intensity relative to the no-actin control sample, using the following equation:
[formula] • Where Fcontrol/DMSO is the peak mCherry fluorescence of assay samples containing compound or DMSO control, and Fno-actin is the peak mCherry fluorescence of assay samples that contained no F-actin. 2.9 Trypan Blue Cell Viability Assays

HEK293-6E cells = experiment: Trypan blue cell viability assay; assay type: cell-based; settings: 10 μM, 3 hr incubation
Protocol: HEK293-6E cell viability was measured using trypan blue (0.03%) staining and a Countess Automated Cell counter (Invitrogen). Non-transfected HEK293-6E cells were spun at 100×g for 5 min at 21° C., and resuspended in 10 mL of PBS. The centrifugation and resuspension were repeated twice more. Final cell concentration was 1×10^6 cells/mL. Cells were incubated with 2% DMSO, or 3-50 μM compound (as indicated) for 3 hrs at room temperature (21° C.). After addition of 100 μL of 0.06% trypan blue solution in PBS, 10 μL was loaded on a slide and injected into the cell counter, and cell viability was measured.

mammalian cells = settings: cited from earlier work
[3] = biological target: T3, GFP-ABD-L253P and Lifeact-mCherry on actin filaments (Homo sapiens, UniProt O15020, L253P); experiment: Live-cell FRET assay after actin depolymerization (Example 2); assay type: cell-based; settings: 60 min treatment
T3 construct: expressed in transfected cells; host or cells: HEK293.2sus (ATCC CRL-1573.3), pcDNA3.1(+), transient
Source text: Expression constructs. FRET donor and acceptor constructs were generated using the plasmid expression vector, pcDNA3.1(+) (Invitrogen). The coding sequence for Lifeact-mCherry was PCR amplified from mCherry-Lifeact-7 (Addgene, plasmid #54491) using the oligonucleotides, […] and […], and ligated into pcDNA3.1(+) using the restriction enzymes Kpn1 and Xba1, resulting in the construct pcDNA3.1-Lifeact-mCherry. To generate GFP-ABD expression constructs, a mEGFP DNA construct with flanking Kpn1 and EcoR1 restriction sites, was synthesized (Integrated DNA Technologies). The mEGFP sequence was subcloned into pcDNA3.1(+) using Kpn1 and EcoR1 restriction enzymes, resulting the in the construct, pcDNA3.1-GFP. DNA sequences encoding the wild-type or L253P human β-III-spectrin ABD (amino acids 1-284, NCBI reference sequence NP_008877.1) were PCR amplified from pE-SUMO-ABD-WT or -L253P (Avery, 2017 PMID: 29116080) using the oligonucleotides […] and […], and inserted into pcDNA3.1-GFP using EcoR1 and Xba1 restriction enzymes. The resulting constructs, pcDNA3.1-GFP-ABD-WT and -L253P, along with pcDNA3.1-Lifeact-mCherry, were sequence verified. […]
FRET Measurement. FRET in live cells was measured using a Fluorescence Lifetime (FLT) Plate Reader (FLTPR) (Fluorescence Innovations). […]

actin filaments = settings: cited from earlier work

T3 sequence (O15020 1-284 L253P): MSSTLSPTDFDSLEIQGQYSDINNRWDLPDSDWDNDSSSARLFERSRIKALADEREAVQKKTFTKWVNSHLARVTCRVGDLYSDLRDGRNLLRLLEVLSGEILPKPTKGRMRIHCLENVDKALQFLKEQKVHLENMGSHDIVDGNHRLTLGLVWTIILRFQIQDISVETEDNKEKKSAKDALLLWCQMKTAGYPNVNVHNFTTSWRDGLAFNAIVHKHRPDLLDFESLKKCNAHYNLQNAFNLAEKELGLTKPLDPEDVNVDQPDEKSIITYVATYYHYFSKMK
T1 sequence (O15020 1-284 L253P, one chain of several): as the sequence (O15020 1-284 L253P) above

For `Clc1ccc(C(c2ccc(Cl)cc2)n2cc[n+](CC(OCc3ccc(Cl)cc3Cl)c3ccc(Cl)cc3Cl)c2)cc1` (centres unmarked) [calmidazolium], which “effect on FRET in primary screen (Hit, 4SD threshold)” value [1] is on record?
The value was “decrease FRET”.

What about the “effect on Lifeact-mCherry binding with actin” value [2] of the same compound?
The value was “decreased actin-Lifeact co-sedimentation; also recorded: reduce Lifeact-mCherry binding with actin”.

What about the “effect on HEK293-6E cell viability” value (HEK293-6E cells) of the same compound?
The value was “dramatically reduced cell viability; also recorded: reduces HEK293-6E cell viability”.

What about the “reported effect on cell viability” value (mammalian cells) of the same compound?
Its value is “reported to reduce cell viability”.

With `C/C1=C/C(=O)O[C@@H]2C[C@@H](CC[C@H](C)/C=C\C=C\CC1)O[C@@](O)([C@@H]1CSC(=O)N1)C2` [latrunculin A] as the compound, how does the “effect on FRET between GFP-ABD-L253P and Lifeact-mCherry” value [3] read?
Its value is “significantly reduce FRET; also recorded: decrease in FRET”.

For `C/C1=C/C(=O)O[C@@H]2C[C@@H](CC[C@H](C)/C=C\CC1)O[C@@](O)([C@@H]1CSC(=O)N1)C2` [latrunculin B], which “effect on FRET between GFP-ABD-L253P and Lifeact-mCherry” value [3] is on record?
Its value is “significantly reduce FRET; also recorded: decrease in FRET”.

With “K255E α-actinin-4: α-actinin-4 carrying the disease mutation K255E” as the compound, how does the Kd (actin filaments; mutant ABD proteins) read?
The Kd was 0.046 µM.

For “wild-type: wild-type dystrophin, comparator for L212P”, which Kd (actin filaments; wild-type dystrophin, Singh et al.) is on record?
Its Kd is ~45 µM.
